Columns and labels:
GBM = conditions: very little gets through the BBB and reaches the tumor; cited from earlier work
[1] = tested on: patients' gliomas implanted in mice; conditions: cited from earlier work
[2] = Fluorescence in mouse cerebral cortex after i.v. injection of albumin-FITC; type: in vivo; conditions: FIGS. 5A, 5B
Text: In addition to the peptide leu-enkephalin, and the small molecules: CF, uranyl acetate, kyotorphin and sucrose, the inventors have also successfully encapsulated in these vesicles the proteins albumin and trypsinogen and the polysaccharide Dextran-FITC (MW 9000).

Row | Compound | outcome of attempts to treat GBM patients (GBM) | potency rank against patients' gliomas implanted in mice ([1]; out of 40 drugs tested) | effectiveness against tumors tested ([1]; patients' gliomas implanted in mice) | delivery of albumin-FITC to the brain (brain accumulation) [2]
1 | CCc1c2c(nc3ccc(OC(=O)N4CCC(N5CCCCC5)CC4)cc13)-c1cc3c(c(=O)n1C2)COC(=O)[C@]3(O)CC [CPT-11, (S)-4,11-diethyl-3,4,12,14-tetrahydro-4-hydroxy-3,14-dioxo1H-pyrano[3′,4′:6,7]-indolizino[1,2-b]quinolin-9-yl-[1,4′bipiperidine]-1′-carboxylate] | unsuccessful | the most potent chemotherapeutic agent | effective against every tumor tested | –
2 | un-encapsulated albumin-FITC: albumin-FITC (non-encapsulated) | – | – | – | little, if any, brain accumulation
